Measured values reported in US9187467B2, “2-phenyl benzothiazole linked imidazole compounds as potential anticancer agents and process for the preparation thereof” (Council of Scientific and Industrial Research, priority 2012, dated 2015).
Read-outs that look alike come from different tables or passages of the source.

Columns and labels:
Type in all cases: cell-based, human
[1] = system: SF-539; assay: SRB anticancer assay, CNS; design: Log10GI50: unit not given here; settings: for GI50: Homo sapiens, SF-539, 48 h
[2] = system: NCI-H522; assay: SRB anticancer assay, non-small lung; design: Log10GI50: unit not given here; settings: for GI50: Homo sapiens, NCI-H522, 48 h
[3] = system: SK-MEL-5; assay: SRB anticancer assay, melanoma; settings: Homo sapiens, SK-MEL-5, 48 h
[4] = system: SR; assay: SRB anticancer assay, leukemia; settings: Homo sapiens, 48 h
[5] = system: U251; assay: SRB anticancer assay, CNS; design: Log10GI50: unit not given here; settings: for GI50: Homo sapiens, U-251, U251, 48 h
[6] = system: OVCAR-3; assay: SRB anticancer assay, ovarian; design: Log10GI50: unit not given here; settings: for GI50: Homo sapiens, OVCAR-3, 48 h
[7] = system: K-562; assay: SRB anticancer assay, leukemia; settings: Homo sapiens, K562; K-562, 48 h
[8] = system: KM12; assay: SRB anticancer assay, colon; settings: Homo sapiens, KM12, 48 h
[9] = system: NCI/ADR-RES; assay: SRB anticancer assay, ovarian; design: Log10GI50: unit not given here; settings: for GI50: Homo sapiens, NCI/ADR-RES, 48 h; for Log10GI50: present compounds
[10] = system: Ovarian cancer cell lines; assay: SRB anticancer assay, panel result; settings: for LC50 / GI50: Homo sapiens; for LC50: 50% net cell death, read-out: mean graph midpoint value (MG_MID) of Log10 LC50 (converted); for mean graph midpoint value (MG_MID) of log10 TGI: total inhibition of net cell growth
Method: (§1) The compounds were evaluated for anticancer activity against sixty human cancer cells derived from nine cancer types (leukemia cell line, non-small-cell lung cell line, colon cell line, CNS cell line, melanoma cell line, ovarian cell line, prostate cell line, renal cancer cell line and breast cancer cell line) as shown in Table 1. For each compound, dose response curves for each cell line were measured at a minimum of five concentrations at 10 fold dilutions. A protocol of 48 h continuous drug exposure was used and a sulforhodamine B (SRB) protein assay was used to estimate cell viability or growth.

[11] = system: Prostate cancer cell lines; assay: SRB anticancer assay, panel result; settings: for LC50 / GI50: Homo sapiens; for LC50: 50% net cell death, read-out: mean graph midpoint value (MG_MID) of Log10 LC50 (converted); for mean graph midpoint value (MG_MID) of log10 TGI: total inhibition of net cell growth
Method: as §1

[12] = system: Renal cancer cell lines; assay: SRB anticancer assay, panel result; settings: for CC50 / GI50: Homo sapiens; for CC50: 50% net cell death, read-out: mean graph midpoint value (MG_MID) of Log10 LC50 (converted); for mean graph midpoint value (MG_MID) of log10 TGI: total inhibition of net cell growth
Method: as §1

[13] = system: Breast cancer cell lines; assay: SRB anticancer assay, panel result; settings: for mean graph midpoint value (MG_MID) of log10 TGI: total inhibition of net cell growth; for CC50 / GI50: Homo sapiens; for CC50: 50% net cell death, read-out: mean graph midpoint value (MG_MID) of Log10 LC50 (converted)
Method: as §1

[14] = system: Melanoma cancer cell lines; assay: SRB anticancer assay, panel result; settings: for LC50 / GI50: Homo sapiens; for LC50: 50% net cell death, read-out: mean graph midpoint value (MG_MID) of Log10 LC50 (converted); for mean graph midpoint value (MG_MID) of log10 TGI: total inhibition of net cell growth
Method: as §1

[15] = system: Colon cancer cell lines; assay: SRB anticancer assay, panel result; settings: for mean graph midpoint value (MG_MID) of log10 TGI: total inhibition of net cell growth; for LC50 / GI50: Homo sapiens; for LC50: 50% net cell death, read-out: mean graph midpoint value (MG_MID) of Log10 LC50 (converted)
Method: as §1

[16] = system: CNS cancer cell lines; assay: SRB anticancer assay, panel result; settings: for mean graph midpoint value (MG_MID) of log10 TGI: total inhibition of net cell growth; for CC50 / GI50: Homo sapiens; for CC50: 50% net cell death, read-out: mean graph midpoint value (MG_MID) of Log10 LC50 (converted)
Method: as §1

[17] = system: Leukemia cancer cell lines; assay: SRB anticancer assay, panel result; settings: for LC50 / GI50: Homo sapiens; for LC50: 50% net cell death, read-out: mean graph midpoint value (MG_MID) of Log10 LC50 (converted); for mean graph midpoint value (MG_MID) of log10 TGI: total inhibition of net cell growth
Method: as §1

[18] = system: Non-small cell lung cancer cell lines; assay: SRB anticancer assay, panel result; settings: for LC50 / GI50: Homo sapiens; for LC50: 50% net cell death, read-out: mean graph midpoint value (MG_MID) of Log10 LC50 (converted); for mean graph midpoint value (MG_MID) of log10 TGI: total inhibition of net cell growth
Method: as §1

[19] = system: 786-0; assay: SRB anticancer assay, renal; settings: for GI50: Homo sapiens, 786-0, 48 h
[20] = system: NCI-H460; assay: SRB anticancer assay, non-small lung; settings: Homo sapiens, NCI-H460, 48 h
[21] = system: TK-10; assay: SRB anticancer assay, renal; settings: Homo sapiens, TK-10, 48 h
[22] = system: SF-295; assay: SRB anticancer assay, CNS; design: Log10GI50: unit not given here; settings: for GI50: Homo sapiens, SF-295, 48 h
[23] = system: LOX IMVI; assay: SRB anticancer assay, melanoma; design: Log10GI50: unit not given here; settings: for GI50: Homo sapiens, 48 h
[24] = system: OVCAR-4; assay: SRB anticancer assay, ovarian; settings: Homo sapiens, OVCAR-4, 48 h
[25] = system: DU-145; assay: SRB anticancer assay, prostate; design: Log10GI50: unit not given here
[26] = Ovarian panel, read-out: mean graph midpoint value (MG_MID) of Log10 GI50 (converted)
[27] = seven ovarian cancer cell lines, exposure at least 48 h, read-out: GI50, range over the panel
[28] = Prostate panel, read-out: mean graph midpoint value (MG_MID) of Log10 GI50 (converted)
[29] = Renal panel, read-out: mean graph midpoint value (MG_MID) of Log10 GI50 (converted)
[30] = eight renal cancer cell lines, exposure at least 48 h, read-out: GI50, range over the panel
[31] = Breast panel, read-out: mean graph midpoint value (MG_MID) of Log10 GI50 (converted)
[32] = six breast cancer cell lines, exposure at least 48 h, read-out: GI50, range over the panel
[33] = Melanoma panel, read-out: mean graph midpoint value (MG_MID) of Log10 GI50 (converted)
[34] = nine melanoma cancer cell lines, exposure at least 48 h, read-out: GI50, range over the panel
[35] = Colon panel, read-out: mean graph midpoint value (MG_MID) of Log10 GI50 (converted)
[36] = seven colon cancer cell lines, exposure at least 48 h, read-out: GI50, range over the panel
[37] = CNS panel, read-out: mean graph midpoint value (MG_MID) of Log10 GI50 (converted)
[38] = six CNS cancer cell lines, exposure at least 48 h, read-out: GI50, range over the panel
[39] = Leukemia panel, read-out: mean graph midpoint value (MG_MID) of Log10 GI50 (converted)
[40] = six leukemia cancer cell lines, exposure at least 48 h, read-out: GI50, range over the panel
[41] = Non-small cell lung panel, read-out: mean graph midpoint value (MG_MID) of Log10 GI50 (converted)
[42] = nine Non-small cell lung cancer cell lines, exposure at least 48 h, read-out: GI50, range over the panel

COc1cc(OC)cc(-c2cncn2-c2ccc(-c3nc4cc(OC)cc(OC)c4s3)cc2)c1 [Compound 6d, 2-(4-(5-(3,5-Dimethoxyphenyl)-1H-imidazol-1-yl)phenyl)-5,7-dimethoxybenzo[d]thiazole]
GI50 [1]: 5.76 µM
GI50 [2]: 2.49 µM
GI50 [3]: 3.29 µM
GI50 [4]: 3.3 µM
GI50 [5]: 4.76 µM
GI50 [6]: 2.87 µM
GI50 [7]: 3.22 µM
GI50 [8]: 4.52 µM
GI50 [9]: 2.58 µM
LC50 ([10]; Ovarian panel): > 100 µM
GI50 [10, 26]: 7.94 µM
GI50 [10, 27]: 2.87 to 14.5 µM
mean graph midpoint value (MG_MID) of log10 TGI ([10]; Ovarian panel): >−4.0
LC50 ([11]; Prostate panel): > 100 µM
GI50 [11, 28]: > 100 µM
mean graph midpoint value (MG_MID) of log10 TGI ([11]; Prostate panel): >−4.0
CC50 ([12]; Renal panel): > 100 µM
GI50 [12, 29]: 12.9 µM
GI50 [12, 30]: 2.13 to 16.8 µM
mean graph midpoint value (MG_MID) of log10 TGI ([12]; Renal panel): >−4.0
mean graph midpoint value (MG_MID) of log10 TGI ([13]; Breast panel): >−4.0
CC50 ([13]; Breast panel): > 100 µM
GI50 [13, 31]: 4.57 µM
GI50 [13, 32]: 3.09 to 9.01 µM
LC50 ([14]; Melanoma panel): > 100 µM
GI50 [14, 33]: 10.5 µM
GI50 [14, 34]: 1.53 to 9.69 µM
mean graph midpoint value (MG_MID) of log10 TGI ([14]; Melanoma panel): >−4.0
mean graph midpoint value (MG_MID) of log10 TGI ([15]; Colon panel): >−4.0
LC50 ([15]; Colon panel): > 100 µM
GI50 [15, 35]: 13.2 µM
GI50 [15, 36]: 4.52 to 4.93 µM
mean graph midpoint value (MG_MID) of log10 TGI ([16]; CNS panel): −4.19
CC50 ([16]; CNS panel): > 100 µM
GI50 [16, 37]: 7.94 µM
GI50 [16, 38]: 2.4 to 11.3 µM
LC50 ([17]; Leukemia panel): > 100 µM
GI50 [17, 39]: 3.31 µM
GI50 [17, 40]: 3.22 to 3.3 µM
mean graph midpoint value (MG_MID) of log10 TGI ([17]; Leukemia panel): >−4.0
LC50 ([18]; Non-small cell lung panel): > 100 µM
GI50 [18, 41]: 10.5 µM
GI50 [18, 42]: 2.49 to 18.5 µM
mean graph midpoint value (MG_MID) of log10 TGI ([18]; Non-small cell lung panel): −4.05
GI50 [19]: 7.6 µM
GI50 [20]: 4.41 µM
GI50 [21]: 16.8 µM
GI50 [22]: 2.4 µM
GI50 [23]: 5.48 µM

COc1cc2nc(-c3ccc(-n4cncc4-c4ccc(N)cc4)cc3)sc2c(OC)c1OC [Compound 7h, 4-(1-(4-(5,6,7-Trimethoxybenzo[d]thiazol-2-yl)phenyl)-1H-imidazol-5-yl)benzenamine]
GI50 [24]: 3.6 µM
GI50 [1]: 7.14 µM
Log10GI50 ([1]; SF-539, present compounds): −5.15
GI50 [2]: 2.74 µM
Log10GI50 ([2]; NCI-H522, present compounds): −5.56
GI50 [3]: 2.74 µM
GI50 [4]: 1.4 µM
GI50 [5]: 3.84 µM
Log10GI50 ([5]; U251, present compounds): −5.42
GI50 [6]: 2.73 µM
Log10GI50 ([6]; OVCAR-3, present compounds): −5.56
GI50 [9]: 1.61 µM
Log10GI50 ([9]; NCI/ADR-RES (row head NCI/ADR-)): −5.79
Log10GI50 ([9]; listed as head printed RES (second line of NCI/ADR-RES)): −4.93
LC50 ([10]; Ovarian panel): 89.1 µM
GI50 [10, 26]: 5.01 µM
GI50 [10, 27]: 1.61 to 34.3 µM
mean graph midpoint value (MG_MID) of log10 TGI ([10]; Ovarian panel): −4.56
LC50 ([11]; Prostate panel): > 100 µM
GI50 [11, 28]: 4.68 µM
GI50 ([11]; two prostate cancer cell lines (PC-3, DU-145), exposure at least 48 h, read-out: GI50, range over the panel): 3.02 to 7.25 µM
mean graph midpoint value (MG_MID) of log10 TGI ([11]; Prostate panel): −4.15
CC50 ([12]; Renal panel): 95.5 µM
GI50 [12, 29]: 3.89 µM
GI50 [12, 30]: 1.41 to 8.95 µM
mean graph midpoint value (MG_MID) of log10 TGI ([12]; Renal panel): −4.38
mean graph midpoint value (MG_MID) of log10 TGI ([13]; Breast panel): −4.47
CC50 ([13]; Breast panel): > 100 µM
GI50 [13, 31]: 2.82 µM
GI50 [13, 32]: 1.59 to 5.36 µM
LC50 ([14]; Melanoma panel): 97.7 µM
GI50 [14, 33]: 4.79 µM
GI50 [14, 34]: 0.71 to 6.4 µM
mean graph midpoint value (MG_MID) of log10 TGI ([14]; Melanoma panel): −4.13
mean graph midpoint value (MG_MID) of log10 TGI ([15]; Colon panel): >−4.0
LC50 ([15]; Colon panel): > 100 µM
GI50 [15, 35]: 3.31 µM
GI50 [15, 36]: 2.79 to 3.81 µM
mean graph midpoint value (MG_MID) of log10 TGI ([16]; CNS panel): −4.51
CC50 ([16]; CNS panel): 66.1 µM
GI50 [16, 37]: 5.75 µM
GI50 [16, 38]: 1.53 to 12.3 µM
LC50 ([17]; Leukemia panel): > 100 µM
GI50 [17, 39]: 1.2 µM
GI50 [17, 40]: 0.989 to 1.4 µM
mean graph midpoint value (MG_MID) of log10 TGI ([17]; Leukemia panel): >−4.0
LC50 ([18]; Non-small cell lung panel): 93.3 µM
GI50 [18, 41]: 2.57 µM
GI50 [18, 42]: 0.446 to 5.13 µM
mean graph midpoint value (MG_MID) of log10 TGI ([18]; Non-small cell lung panel): −4.54
Log10GI50 ([19]; 786-0, present compounds): −5.20 log10 M
GI50 [19]: 6.26 µM
GI50 [20]: 5.13 µM
GI50 [21]: 4.93 µM
GI50 [22]: 1.53 µM
Log10GI50 ([22]; SF-295, present compounds): −5.82
GI50 [23]: 3.65 µM
Log10GI50 ([23]; present compounds): −5.44
Log10GI50 ([25]; DU-145, present compounds): −5.04
GI50 ([25]; Homo sapiens, DU-145, 48 h): 7.25 µM
